Where “and” joins values, the source holds several entries; their conditions need not be identical. Identical values can stand only once. Calls of active or inactive are those of the source.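 Rule for the calls: active = at least one rat sex group has a carcinogenic potency value and tumor site recorded; inconclusive = only rat studies were judged inadequate by the national testing program; inactive = no potency or tumor site, with negative rat experiments.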
Tested on: rat chronic carcinogenicity bioassay, TD50
Experiment: DSSTox (CPDBAS) Carcinogenic Potency Database Summary Rat Bioassay Results
Details: for Potency: stronger effect = lower value
From the text: The Carcinogenic Potency Database (CPDB) is a unique and widely used international resource of the results of over 6500 chronic, long-term animal cancer tests on over 1500 chemical substances. The CPDB provides easy access to the bioassay literature, with qualitative and quantitative analyses of both positive and negative experiments that have been published over the past 50 years in the general literature and by the National Cancer Institute/National Toxicology Program. The CPDB standardizes the diverse literature of cancer bioassays that vary widely in protocol, histopathological examination and nomenclature, and in the published author's choices of what information to provide in their papers. Results are reported in the CPDB for tests in rats, mice, hamsters, dogs, and nonhuman primates, and are based on the most positive result among all experiments for each sex-species. The DSSTox CPDBAS (all species) file incorporates data from the CPDB Summary Tables for the full list of over 1500 chemical substances tested in at least one species. Summary bioassay results for Rat (TD50, tumor sites, male, female, both sexes) are provided in the CPDB Summary Tables and the DSSTox CPDBAS file for over 1200 chemical substances.
TD50 is a standardized quantitative measure of carcinogenic potency (analogous to an LD50) and is reported in the CPDB Summary Table for each species. Activity Score for actives is computed by mapping of LOG10 (1/TD50_Rat_mmol) activity values spanning range [MIN, MAX] onto Integer 1-100 Activity Score range, where 100 is highest potency and 1 is lowest: Activity Score = 100 * INTEGER[(log10(1/Activity) - MIN)/(MAX - MIN)]. If activity is reported but no TD50_Rat_mmol value is computed, such as for a mixture, the Activity Score is assigned the activity value "50". […] Target sites are reported for each sex-species group with a positive result in the CPDB on the basis of a positive author's opinion for the particular site, using all results from both the general literature and NCI/NTP bioassays. If a chemical has two or more target sites listed, the results may be from different experiments, and a single site may be a target organ in more than one experiment, as well. Blank entry in TargetSites field indicates no results reported.

[1] = TD50_Rat_Note: no positive results, TargetSites_Rat_Female: no positive results
[2] = TargetSites_Rat_Female: no positive results
[3] = TD50_Rat_Note: no positive results
[4] = TD50_Rat_Note: TD50 is harmonic mean of more than one positive test, TargetSites_Rat_Female: liver

O=NN(CCO)CCO
Potency (TD50_Rat_Note: TD50 is harmonic mean of more than one positive test, greater than ten-fold variation among TD50 values for positive res, TargetSites_Rat_Female: esophagus, kidney, liver, nasal cavity): 3.17 mg/kg/day

OC[P+](CO)(CO)CO
outcome [1]: inactive; no positive results

CC(C)NCC(O)COc1ccc(CC(N)=O)cc1 (configuration not stated)
outcome [1]: inactive; no positive results

CC(Cl)Cl
outcome [1]: inactive; no positive results

CN(C)CCC(c1ccc(Cl)cc1)c1ccccn1 (configuration not stated)
outcome [1]: inactive; no positive results

ClC(Cl)(Cl)C(Cl)(Cl)Cl
Potency [2]: 55.4 mg/kg/day

CCCCNC(N)=O
outcome [1]: inactive; no positive results

CNC(=S)N(C)C
Potency (TargetSites_Rat_Female: thyroid gland): 25.8 mg/kg/day

C=C1C(CCl)(CCl)C2(Cl)C(Cl)C(Cl)C1(Cl)C2(Cl)Cl (configuration not stated)
outcome [1]: inactive; no positive results

COP(=S)(OC)SCn1nnc2ccccc2c1=O
outcome [1]: inactive; no positive results

CCN(N=O)C(=O)NCCO
Potency (TD50_Rat_Note: TD50 is harmonic mean of more than one positive test, TargetSites_Rat_Female: mammary gland, skin, uterus): 0.522 mg/kg/day

CCCN(CCC)S(=O)(=O)c1ccc(C(=O)O)cc1
outcome [1]: inactive; no positive results

O=C1C=C2C(=CCOC2O)O1 (configuration not stated)
outcome [1]: inactive

Nc1ccc([N+](=O)[O-])cc1N
outcome [1]: inactive; no positive results

[O]N=O
outcome [3]: inactive; no positive results

O=C(O)CN(CC(=O)O)CC(=O)O
Potency (TD50_Rat_Note: TD50 is harmonic mean of more than one positive test, TargetSites_Rat_Female: kidney, urinary bladder): 1770 mg/kg/day and 370 mg/kg/day

C[N+](C)(C)CCCl
outcome [1]: inactive; no positive results

C=CCCl
outcome (TD50_Rat_Note: only experiment is NCI/NTP bioassay inadequate, TargetSites_Rat_Female: NTP bioassay inadequate): ntp bioassay inadequate

C1CCNCC1
outcome [1]: inactive; no positive results

Nc1nnc(-c2ccc([N+](=O)[O-])o2)s1
Potency (TargetSites_Rat_Female: kidney, lung, mammary gland, stomach): 0.662 mg/kg/day

CC(=O)CN(N=O)C(N)=O
outcome [1]: inactive; no positive results

Nc1ccc2ccccc2c1
Potency (TargetSites_Rat_Female: urinary bladder, TargetSites_Rat_BothSexes: no positive results): 61.6 mg/kg/day

Cc1cc(N)ccc1N
outcome [1]: inactive; no positive results

COC(=O)C1=CCCN(N=O)C1
outcome [3]: inactive; no positive results

CCc1cccc2c3c([nH]c12)C(CC)(CC(=O)O)OCC3 (configuration not stated)
outcome [1]: inactive; no positive results

CN(C)P(=O)(N(C)C)N(C)C
Potency (TD50_Rat_Note: TD50 is harmonic mean of more than one positive test, TargetSites_Rat_BothSexes: nasal cavity): 0.0344 mg/kg/day

CCCOC(=O)c1cc(O)c(O)c(O)c1
outcome [1]: inactive; no positive results

COc1ccc(CN(CCN(C)C)c2ccccn2)cc1
Potency [4]: 280 mg/kg/day

O=C(c1ccccc1)C(O)c1ccccc1 (configuration not stated)
outcome [1]: inactive; no positive results

O=C1CCc2ccccc2O1
Potency [2]: 2970 mg/kg/day

CN(N=O)c1ccc([N+](=O)[O-])cc1
outcome [3]: inactive; no positive results

Clc1ccc(Sc2cc(Cl)c(Cl)cc2Cl)cc1
outcome [1]: inactive; no positive results

Nc1ccc([N+](=O)[O-])cc1O
Potency [2]: 111 mg/kg/day

O=C1CCN([C@@H]2O[C@H](CO)[C@@H](O)[C@H]2O)C(=O)N1
outcome [3]: inactive; no positive results

[O-]/[N+](=N\O)c1ccccc1
Potency (TD50_Rat_Note: TD50 is harmonic mean of more than one positive test, TargetSites_Rat_Female: ear Zymbals gland, liver, stomach, vascular system): 8.35 mg/kg/day

Cc1ccc(-c2cc(C(F)(F)F)nn2-c2ccc(S(N)(=O)=O)cc2)cc1
outcome [3]: inactive; no positive results

CCCC(Cl)CCC(Cl)CCC(Cl)CCC(Cl)CCC(Cl)CCC(Cl)CCC(C)Cl (configuration not stated)
outcome [1]: inactive; no positive results

CC(O)CN(CC(O)CO)N=O (configuration not stated)
Potency (TargetSites_Rat_Female: esophagus, oral cavity, stomach): 0.0535 mg/kg/day

CC(=O)C(N=Nc1ccc(-c2ccc(N=NC(C(C)=O)C(=O)Nc3ccccc3)c(Cl)c2)cc1Cl)C(=O)Nc1ccccc1 (configuration not stated)
outcome [1]: inactive; no positive results

C[C@](N)(Cc1ccc(O)c(O)c1)C(=O)O
outcome [1]: inactive; no positive results

CN(C)c1ccc(Cc2ccc(N(C)C)cc2)cc1
Potency (TD50_Rat_Note: TD50 is harmonic mean of more than one positive test, TargetSites_Rat_Female: thyroid gland): 16.4 mg/kg/day

CC(C)(OCc1ccc(-c2ccc(Cl)cc2)cc1)C(=O)O
outcome [1]: inactive; no positive results

NC(=O)N/N=C/c1ccc([N+](=O)[O-])o1
Potency (TD50_Rat_Note: TD50 is harmonic mean of more than one positive test, harmonic mean of TD50 includes a value for upper 99% confidence li, TargetSites_Rat_Female: mammary gland): 6.98 mg/kg/day

CC(=O)Nc1ccc(N=Nc2cc(C)ccc2O)cc1
Potency [2]: 380 mg/kg/day

O=P(OCC(Br)CBr)(OCC(Br)CBr)OCC(Br)CBr (configuration not stated)
Potency (TD50_Rat_Note: TD50 is harmonic mean of more than one positive test, TargetSites_Rat_Female: kidney): 3.83 mg/kg/day

O=S1(=O)N=C(O)c2ccccc21
outcome [3]: inactive; no positive results

Clc1ccc2c(c1)Oc1ccc(Cl)cc1O2
outcome [1]: inactive; no positive results

O=NN1CCCCCCC1
Potency (TD50_Rat_Note: TD50 is harmonic mean of more than one positive test): 0.0378 mg/kg/day

Cc1ccc(N)cc1
outcome [3]: inactive; no positive results

CC1(C)S[C@@H]2[C@H](NC(=O)COc3ccccc3)C(=O)N2[C@H]1C(=O)O
outcome [1]: inactive; no positive results

O=P1(N(CCCl)CCCl)NCCCO1 (configuration not stated)
Potency (TD50_Rat_Note: TD50 is harmonic mean of more than one positive test, greater than ten-fold variation among TD50 values for positive res, TargetSites_Rat_Female: all tumor bearing animals, TargetSites_Rat_BothSexes: hematopoietic system, nervous system, urinary bladder): 2.21 mg/kg/day

O=CNc1nc(-c2ccc([N+](=O)[O-])o2)cs1
Potency (TD50_Rat_Note: TD50 is harmonic mean of more than one positive test, harmonic mean of TD50 includes a value for upper 99% confidence li, TargetSites_Rat_Female: urinary bladder): 4.25 mg/kg/day

NC1=NCN([C@@H]2O[C@H](CO)[C@@H](O)[C@H]2O)C(=O)N1
outcome [3]: inactive; no positive results

c1ccc2c(c1)Oc1ccccc1O2
outcome [1]: inactive; no positive results

CC1=C(C(=O)OCCN(Cc2ccccc2)c2ccccc2)C(c2cccc([N+](=O)[O-])c2)C(P2(=O)OCC(C)(C)CO2)=C(C)N1 (configuration not stated)
outcome [1]: inactive; no positive results

CC1(C)[C@H](C(=O)O[C@H](C#N)c2cccc(Oc3ccccc3)c2)[C@@H]1C=C(Br)Br
outcome [1]: inactive; no positive results

Cc1c(N(C)CS(=O)(=O)O)c(=O)n(-c2ccccc2)n1C
outcome [1]: inactive; no positive results

O=C(C1CCCCC1)N1CC(=O)N2CCc3ccccc3C2C1 (configuration not stated)
outcome [1]: inactive; no positive results

COC(=O)NN
outcome [1]: inactive; no positive results

C/C=C1/C[C@@H](C)[C@](O)(CO)C(=O)OCC2=CC[N+]3([O-])CC[C@@H](OC1=O)[C@@H]23 (some centres not stated)
Potency [4]: 0.716 mg/kg/day

CC(C)(C)O
Potency [2]: 64.6 mg/kg/day

CC/C=C(/CC)[N+](=O)[O-]
Potency (TargetSites_Rat_BothSexes: lung): 8.66 mg/kg/day

ClC/C=C/CCl
Potency (TD50_Rat_Note: TD50 is harmonic mean of more than one positive test, TargetSites_Rat_Female: nasal cavity): 0.297 mg/kg/day

O=C(Nc1ccc([N+](=O)[O-])cc1Cl)c1cc(Cl)ccc1O
outcome [1]: inactive; no positive results

C=C(C)CCl
Potency (TD50_Rat_Note: TD50 is harmonic mean of more than one positive test, TargetSites_Rat_Female: stomach): 113 mg/kg/day

CC(CN1CC(=O)NC(=O)C1)N1CC(=O)NC(=O)C1 (configuration not stated)
Potency (TD50_Rat_Note: positive test results only by intraperitoneal or intravenous injection, TargetSites_Rat_Female: uterus): 10.7 mg/kg/day

Nc1ccc(-c2ccc(N)c(Cl)c2)cc1Cl
Potency (TD50_Rat_Note: TD50 is harmonic mean of more than one positive test, TargetSites_Rat_Female: mammary gland): 28.1 mg/kg/day

CCN(CC)c1cc2oc3cc(=[N+](CC)CC)c(C)cc-3c(-c3ccc(S(=O)(=O)O)cc3S(=O)(=O)[O-])c2cc1C
outcome [1]: inactive; no positive results

Nc1ccc(N)cc1
outcome [1]: inactive; no positive results

Cc1cccc(C)c1NC1=NCCCS1
outcome [3]: inactive; no positive results

CN(Cc1cnc2nc(N)nc(N)c2n1)c1ccc(C(=O)N[C@@H](CCC(=O)O)C(=O)O)cc1
outcome [1]: inactive; no positive results

ClC(Cl)=C(Cl)Cl
Potency (TD50_Rat_Note: TD50 is harmonic mean of more than one positive test, TargetSites_Rat_Female: hematopoietic system): 145 mg/kg/day

CC1=C(/C=C/C(C)=C/C=C/C(C)=C/C(=O)O)C(C)(C)CCC1
outcome [1]: inactive; no positive results

NCCCC(N)(C(=O)O)C(F)F (configuration not stated)
outcome [1]: inactive; no positive results

O=[N+]([O-])O
outcome [1]: inactive; no positive results

Cc1c(N)nc(C)c2c1[nH]c1ccccc12
Potency [4]: 0.575 mg/kg/day

COc1cc(S(C)=O)ccc1-c1nc2ccncc2[nH]1 (configuration not stated)
Potency (TD50_Rat_Note: TD50 is harmonic mean of more than one positive test, TargetSites_Rat_Female: adrenal gland): 70.5 mg/kg/day
